Measurements from patent US20110275692A1, “SUBSTITUTED GAMMA LACTAMS AS THERAPEUTIC AGENTS” (ALLERGAN, INC., priority 2005, published 2011).

What was measured:
hEP3A/Gqi5 = target: T1, hEP3A/Gqi5 (Homo sapiens, UniProt P43115); assay: Other receptors: hEP3A FLIPR; type: cell-based
T1 construct: expressed in transfected cells; host or cells: HEK-293(EBNA)
T1 sequence (P43115 1-390): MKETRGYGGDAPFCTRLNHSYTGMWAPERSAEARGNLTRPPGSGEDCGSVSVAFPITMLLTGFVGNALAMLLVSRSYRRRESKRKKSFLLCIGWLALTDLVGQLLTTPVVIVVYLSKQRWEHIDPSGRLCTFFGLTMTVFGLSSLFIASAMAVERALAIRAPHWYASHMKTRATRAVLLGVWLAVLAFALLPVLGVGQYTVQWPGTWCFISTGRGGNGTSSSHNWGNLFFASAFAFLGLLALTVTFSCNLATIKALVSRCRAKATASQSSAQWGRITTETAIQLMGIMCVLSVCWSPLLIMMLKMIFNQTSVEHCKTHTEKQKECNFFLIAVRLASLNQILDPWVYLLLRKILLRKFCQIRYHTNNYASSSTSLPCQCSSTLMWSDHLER
Method: (§1) HEK-293(EBNA) cells, stably expressing one type or subtype of recombinant human prostaglandin receptors (prostaglandin receptors expressed: hDP/Gqs5; hEP1; hEP2/Gqs5; hEP3A/Gqi5; hER4/Gqs5; hFP; hIP; hTP), were cultured in 100 mm culture dishes in high-glucose DMEM medium containing 10% fetal bovine serum, 2 mM 1-glutamine, 250 μg/ml geneticin (G418) and 200 μg/ml hygromycin B as selection markers, and 100 units/ml penicillin G, 100 μg/ml streptomycin and 0.25 μg/ml amphotericin B.
(§2) Cells were seeded at a density of 5×10^4 cells per well in Biocoat® Poly-D-lysine-coated black-wall, clear-bottom 96-well plates (Becton-Dickinson) and allowed to attach overnight in an incubator at 37° C. Cells were then washed two times with HBSS-HEPES buffer (Hanks Balanced Salt Solution without bicarbonate and phenol red, 20 mM HEPES, pH 7.4) using a Denley Cellwash plate washer (Labsystems). […]
(§3) Cells were excited with an Argon laser at 488 nm, and emission was measured through a 510-570 nm bandwidth emission filter (FLIPR™, Molecular Devices, Sunnyvale, Calif.). […] The peak increase in fluorescence intensity was recorded for each well. […] The peak fluorescence change in each drug-containing well was then expressed relative to the controls. […]

EP2 [1] = target: T2, EP2 (Homo sapiens, UniProt P43116); assay: EP2 cAMP; type: cell-based
EP4 receptors = target: T3, EP4 receptors (Homo sapiens, UniProt P35408); assay: EP4 radioligand binding ([3H]PGE2)
T3 construct: expressed in transfected cells; host or cells: HEK-293
Method: HEK-293 cells stably expressing the human or feline FP receptor, or EP1, EP2, or EP4 receptors were washed with TME buffer, scraped from the bottom of the flasks, and homogenized for 30 sec using a Brinkman PT 10/35 polytron. TME buffer was added to achieve a final 40 ml volume in the centrifuge tubes (the composition of TME is 100 mM TRIS base, 20 mM MgCl2, […]; 10N HCl is added to achieve a pH of 7.4).
The cell homogenate was centrifuged at 19000 r.p.m. for 20 min at 4° C. using a Beckman Ti-60 rotor. The resultant pellet was resuspended in TME buffer to give a final 1 mg/ml protein concentration, as determined by Biorad assay. Radioligand binding competition assays vs. [^3H-]17-phenyl PGF2α (5 nM) were performed in a 100 μl volume for 60 min. Binding reactions were started by adding plasma membrane fraction. The reaction was terminated by the addition of 4 ml ice-cold TRIS-HCl buffer and rapid filtration through glass fiber GF/B filters using a Brandel cell harvester. The filters were washed 3 times with ice-cold buffer and oven dried for one hour.
[^3H-]PGE2 (specific activity 180 Ci mmol) was used as the radioligand for EP receptors. [^3H] 17-phenyl PGF2α was employed for FP receptor binding studies. […] 17-phenyl PGF2α and non-specific binding determined with 10^−5M of unlabeled PGE2, or 17-phenyl PGF2α, according to receptor subtype studied.

EP2 [2] = target: T2, EP2; assay: EP2 competition binding ([3H]PGE2); set-up: expressed in transfected cells; host or cells: HEK 293; conditions: HEK 293 cells stably expressing human EP2, [3H]PGE2
Method: Competition binding experiments were performed in a medium containing Hank's balanced salt solution, Hepes 20 mM, pH 7.3, membranes (˜60 μg protein) or 2×10^5 cells from HEK 293 cells stably expressing human EP2 receptors, [^3H]PGE2 (10 nM) and various concentrations of test compounds in a total volume of […] Reaction mixtures were incubated at 23° C. for 60 min, and were filtered over Whatman GF/B filters under vacuum. Filters were washed three times with 5 ml ice-cold buffer containing 50 mM Tris/HCl (pH 7.3). Non-specific binding was estimated in the presence of excess unlabeled PGE2 (10 μM). Binding data fitted to the binding model for a single class of binding sites, using nonlinear regression analysis. IC50 values thus obtained were converted to Ki using the equation of Ki=(IC50/(1+[L]/KD) where [L] represents PGE2 concentration (10 nM) and KD the dissociation constant for [^3H]PGE2 at human EP2 receptors (40 nM). […]
The cell homogenate was centrifuged at 19000 r.p.m. for 20 min at 4° C. using a Beckman Ti-60 rotor. The resultant pellet was resuspended in TME buffer to give a final 1 mg/ml protein concentration, as determined by Biorad assay. […]
[^3H-]PGE2 (specific activity 180 Ci mmol) was used as the radioligand for EP receptors. […] 17-phenyl PGF2α and non-specific binding determined with 10^−5M of unlabeled PGE2, or 17-phenyl PGF2α, according to receptor subtype studied.

hEP2/Gqs5 = target: T4, hEP2/Gqs5 (Homo sapiens, UniProt P43116); assay: EP2 FLIPR calcium signal; type: cell-based; conditions: HEK-293(EBNA) cells
T4 construct: expressed in transfected cells; host or cells: HEK-293(EBNA)
Method: as §1, §2, §3

T2 sequence (P43116 whole entry): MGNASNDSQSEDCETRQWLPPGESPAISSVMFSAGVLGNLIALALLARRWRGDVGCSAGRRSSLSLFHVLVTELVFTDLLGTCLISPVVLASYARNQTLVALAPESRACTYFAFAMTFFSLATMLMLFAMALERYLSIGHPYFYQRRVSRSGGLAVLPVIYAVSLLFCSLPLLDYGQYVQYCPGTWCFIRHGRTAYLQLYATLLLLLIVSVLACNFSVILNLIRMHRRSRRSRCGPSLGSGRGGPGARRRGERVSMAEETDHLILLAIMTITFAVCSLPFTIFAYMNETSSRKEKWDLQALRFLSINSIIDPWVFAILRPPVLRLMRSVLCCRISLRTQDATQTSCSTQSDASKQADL
T4 sequence (P43116 whole entry): as above
T3 sequence (P35408 whole entry): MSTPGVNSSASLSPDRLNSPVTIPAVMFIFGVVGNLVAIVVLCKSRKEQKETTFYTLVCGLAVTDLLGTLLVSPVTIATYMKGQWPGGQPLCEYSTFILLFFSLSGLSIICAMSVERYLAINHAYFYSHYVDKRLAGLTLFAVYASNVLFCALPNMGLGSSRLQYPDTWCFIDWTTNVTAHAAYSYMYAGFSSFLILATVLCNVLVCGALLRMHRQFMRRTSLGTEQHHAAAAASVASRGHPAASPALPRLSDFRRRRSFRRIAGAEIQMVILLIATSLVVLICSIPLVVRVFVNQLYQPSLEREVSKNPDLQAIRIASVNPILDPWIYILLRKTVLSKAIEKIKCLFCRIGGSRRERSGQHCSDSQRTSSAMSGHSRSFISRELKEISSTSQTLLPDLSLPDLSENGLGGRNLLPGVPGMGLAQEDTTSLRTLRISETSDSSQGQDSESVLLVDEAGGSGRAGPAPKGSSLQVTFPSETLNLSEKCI

CCCCCC(O)c1ccc(N2C(=O)CC[C@@H]2C=CCc2ccc(C(=O)O)s2)cc1 (stereo partly drawn) [Example 16, 5-((E and Z)-3-{(R)-1-[4-(1-Hydroxy-hexyl)-phenyl]-5-oxo-pyrrolidin-2-yl}-allyl)-thiophene-2-carboxylic acid]
EC50 (hEP3A/Gqi5): 1410 nM | EC50 (EP2 [1]): 15 nM | Ki (EP4 receptors): > 10 µM | Ki (EP2 [2]): 1380 nM | EC50 (hEP2/Gqs5): 226 nM
